{
  "source": "patent US8519163B2",
  "about": "“Anti-tumor activity of AECHL-1, novel triterpenoid isolated from Ailanthus excelsa in vitro and in vivo” (National Centre for Cell Science, priority 2008, dated 2013)",
  "key": {"[1]": {"tested_on": "MCF-7 human breast cancer", "experiment": "Cell viability (MTT) and proliferation ([3H]thymidine) assay", "type": "cell-based", "description": "(§1) The cytotoxic effect of AECHL-1 on the HEK 293, B16F10, PC3, MCF 7 and MDA-MB-231 cells was measured by MTT assay as described in previous studies. The cells were dispensed in 96-well, flat bottom microtiter plates (Becton Dickinson Labware) at a density of 5×10^3 cells each well. […] MTT [3-(4,5-dimethylthiazol-2yl)-2,5-diphenyl tetrazolium bromide] solution (5 mg/ml in PBS) was added at the end of experiment to each well to a final concentration of 0.5 mg/ml, and the cultures were incubated for further 4 h. The resulting formazan crystals were dissolved in 100 μl dimethylsulfoxide (DMSO) and absorbance was measured in a microplate reader at 570 nm (Molecular Devices, Spectra MAX 250). The cytotoxic effect was expressed as a relative percentage of inhibition calculated as follows: Relative inhibition(%)=[(A570 control−A570 AECHL-1)A570 control]×100 Cell Proliferation Assay\n(§2) Aliquots of complete medium containing 5×10^3 cells (B16F10, PC3, MDA-MB-231 and MCF-7 cells) were distributed into 96-well tissue culture plates. […] After 6 h incubation, 1 μCi [^3H]thymidine was added to each well. Cells were harvested after 24 and 48 hrs of treatment on a glass filter paper with a 96-well auto-harvester and the amount of incorporated [^3H]thymidine was determined with a β-counter (Canberra packard)."}, "[2]": {"tested_on": "B16F10 mouse melanoma cells", "experiment": "Cell viability (MTT) and proliferation ([3H]thymidine) assay", "type": "cell-based", "details": "12, 24 and 48 h, concentration and time dependent", "description": "as §1, §2"}, "[3]": {"tested_on": "PC3 human prostate cancer cells", "experiment": "Cell viability (MTT) and proliferation ([3H]thymidine) assay", "type": "cell-based", "details": "12, 24 and 48 h, concentration and time dependent", "description": "as §1, §2"}, "[4]": {"tested_on": "MDA-MB-231 human breast carcinoma", "experiment": "Cell viability (MTT) and proliferation ([3H]thymidine) assay", "type": "cell-based", "details": "12, 24 and 48 h, concentration and time dependent", "description": "as §1, §2"}, "[5]": {"tested_on": "HEK 293 (Human embryonic kidney cell line)", "experiment": "Cell viability assay (MTT)", "type": "cell-based", "details": "HEK 293, compared with tumor cell lines", "description": "as §1"}, "pp53": {"tested_on": "pp53", "experiment": "Western blot of tumor homogenates of C57B1/6 mice", "type": "in vivo, mouse", "details": "tumor of C57 mice", "description": "(§3) Prior to immunoblot analysis, tumor segments stored at −80° C. were thawed, washed, minced and homogenized in lysis buffer (120 mM NaCl, 1.0% Triton X 100, 20 mM Tris-HCl, pH 7.5, 10% glycerol, 2 mM EDTA, Protease inhibitor cocktail, Roche) using a Polytron homogenization device. Lysates were incubated at 4° C. for 30 min and centrifuged at 14000 r.p.m. in an Eppendorf micro centrifuge for 15 min. Proteins were isolated in solublised form. Protein concentrations were measured by Bradford assay (Bio-Rad protein assay kit) and stored at −80° C. For immunobloting, 60 μg of total protein from the tumor lysates were used Proteins were resolved in a 10% SDS-polyacrylamide gel, transferred to the immobilon-P […] membrane and blocked with 5% (wt/v) non fat dry milk powder (Sigma) in TBST buffer (10 mM Tris pH 7.6, 150 mM NaCl and 0.1% Tween-20) for three hours at room temperature and then incubated with primary antibodies p53, pp53, p21, Cyclin D1, CDK4 and c-Myc in TBST for 3 h and with actin for 1 hour at room temperature. The membrane was incubated further with the secondary antibody HRP-conjugated (BD Bioscience) at 1:10000 dilution for 1 h at room temperature. Following each antibody incubation, the membrane was washed thoroughly with TBST buffer 3 times. The protein bands were visualized using the enhanced chemiluminescence substrate reaction (Pierce) according to the manufacturer's instructions using X-OMAT AR5 film (Kodak)"}, "p21": {"tested_on": "p21", "experiment": "Western blot of tumor homogenates of C57B1/6 mice", "type": "in vivo, mouse", "details": "tumor of C57 mice", "description": "as §3"}, "p53": {"tested_on": "p53", "experiment": "Western blot of tumor homogenates of C57B1/6 mice", "type": "in vivo, mouse", "details": "tumor of C57 mice, compared with control", "description": "as §3"}, "Cyclin D1": {"tested_on": "Cyclin D1", "experiment": "Western blot of tumor homogenates of C57B1/6 mice", "type": "in vivo, mouse", "details": "tumor of C57 mice", "description": "as §3"}, "c-Myc": {"tested_on": "c-Myc", "experiment": "Western blot of tumor homogenates of C57B1/6 mice", "type": "in vivo, mouse", "details": "tumor of C57 mice", "description": "as §3"}, "CDK4": {"tested_on": "CDK4", "experiment": "Western blot of tumor homogenates of C57B1/6 mice", "type": "in vivo, mouse", "details": "tumor of C57 mice", "description": "as §3"}, "B16F10 cells": {"tested_on": "B16F10 cells", "experiment": "Cell cycle analysis by flow cytometry", "type": "cell-based, mouse", "details": "for Phase of cell cycle (% of cells) G1 / Phase of cell cycle (% of cells) G2/M / Phase of cell cycle (% of cells) S / Phase of cell cycle (% of cells) Sub G0: 24 h", "description": "The cell cycle analysis of MCF-7, B16F10 MDA-MB-231 and PC3 cells was done by flow cytometry. […] Cells were harvested with trypsin (0.05%), 0.02% EDTA, 0.05% glucose and a single-cell suspension was prepared. Cells were washed and were pelleted by centrifugation (1000×g for 2 min) and fixed in 70% ethanol while vortexing and stored at 4° C. for 1 hour. Fixed cells were pelleted by centrifugation, to remove ethanol and washed with PBS. Cells were re-suspended in PBS containing 50 μg/ml propidium iodide, 0.1 g/L RNase and 1% BSA, incubated for 30 min at 37° C. in the dark, and analyzed with flow cytometry (FACS Vantage-BD Sciences, USA) equipped with an argon laser at 488 nm. The data was analyzed using Cell Quest software for determining the percent population in different phases of cell cycle."}},
  "data": [
    {"compound": "C=C1C(OCC)C2(O)OCC34C(=C(C)c5c(C)cc(O)c(OCC)c5C23)OC(=O)C(OC(=O)C(C)(O)CC)C14", "note": "(centres unmarked) [AECHL-1]", "values": [
      {"measurement": "percent viability and proliferation of the tumor cells", "setting": "[1]; MCF-7, 12, 24 and 48 h, concentration and time dependent", "result": "significantly inhibited"},
      {"measurement": "inhibitory effect compared with reference drugs", "setting": "[1]; MCF-7 cells, 10 μM, 48 h", "result": "stronger than that of Paclitaxel, or Cisplatin"},
      {"measurement": "percent viability and proliferation of the tumor cells", "setting": "[2]", "result": "significantly inhibited"},
      {"measurement": "percent viability and proliferation of the tumor cells", "setting": "[3]", "result": "significantly inhibited"},
      {"measurement": "percent viability and proliferation of the tumor cells", "setting": "[4]", "result": "significantly inhibited"},
      {"measurement": "cytotoxicity in normal cells", "setting": "[5]", "result": "less cytotoxicity"},
      {"measurement": "phosphorylation of p53 (pp53)", "setting": "pp53; 50 μg", "result": "increasing"},
      {"measurement": "phosphorylation of p53 (pp53)", "setting": "pp53; 100 μg", "result": "decreased"},
      {"measurement": "expression of p21", "setting": "p21; 50 μg", "result": "decrease"},
      {"measurement": "expression of p21", "setting": "p21; 100 μg", "result": "increased"},
      {"measurement": "p53 protein expression", "setting": "p53; 50 μg", "result": "increasing expression"},
      {"measurement": "p53 protein expression", "setting": "p53; 100 μg", "result": "increasing expression"},
      {"measurement": "expression of cyclin D1", "setting": "Cyclin D1", "result": "reduced the expression"},
      {"measurement": "expression of c-Myc", "setting": "c-Myc", "result": "downragulation"},
      {"measurement": "expression of CDK4", "setting": "CDK4", "result": "reduced the expression"},
      {"measurement": "Phase of cell cycle (% of cells) G1", "setting": "B16F10 cells; B16F10, 10 μM", "result": 56.55, "unit": "%"},
      {"measurement": "Phase of cell cycle (% of cells) G2/M", "setting": "B16F10 cells; B16F10, 10 μM", "result": 23.02, "unit": "%"},
      {"measurement": "Phase of cell cycle (% of cells) S", "setting": "B16F10 cells; B16F10, 10 μM", "result": 20.46, "unit": "%"},
      {"measurement": "Phase of cell cycle (% of cells) Sub G0", "setting": "B16F10 cells; B16F10, 10 μM", "result": 0.39, "unit": "%"},
      {"measurement": "Phase of cell cycle (% of cells) G1", "setting": "B16F10 cells; B16F10, 20 μM", "result": 57.67, "unit": "%"},
      {"measurement": "Phase of cell cycle (% of cells) G2/M", "setting": "B16F10 cells; B16F10, 20 μM", "result": 23.60, "unit": "%"},
      {"measurement": "Phase of cell cycle (% of cells) S", "setting": "B16F10 cells; B16F10, 20 μM", "result": 18.40, "unit": "%"},
      {"measurement": "Phase of cell cycle (% of cells) Sub G0", "setting": "B16F10 cells; B16F10, 20 μM", "result": 0.65, "unit": "%"},
      {"measurement": "Phase of cell cycle (% of cells) G1", "setting": "B16F10 cells; B16F10, 40 μM", "result": 72.08, "unit": "%"},
      {"measurement": "Phase of cell cycle (% of cells) G2/M", "setting": "B16F10 cells; B16F10, 40 μM", "result": 14.73, "unit": "%"},
      {"measurement": "Phase of cell cycle (% of cells) S", "setting": "B16F10 cells; B16F10, 40 μM", "result": 11.43, "unit": "%"},
      {"measurement": "Phase of cell cycle (% of cells) Sub G0", "setting": "B16F10 cells; B16F10, 40 μM", "result": 2.05, "unit": "%"},
      {"measurement": "Phase of cell cycle (% of cells) G1", "setting": "B16F10 cells; B16F10, 100 μM", "result": 64.04, "unit": "%"},
      {"measurement": "Phase of cell cycle (% of cells) G2/M", "setting": "B16F10 cells; B16F10, 100 μM", "result": 13.23, "unit": "%"},
      {"measurement": "Phase of cell cycle (% of cells) S", "setting": "B16F10 cells; B16F10, 100 μM", "result": 15.41, "unit": "%"},
      {"measurement": "Phase of cell cycle (% of cells) Sub G0", "setting": "B16F10 cells; B16F10, 100 μM", "result": 7.82, "unit": "%"},
      {"measurement": "phase of cell growth arrest", "setting": "B16F10 cells; B16F10 cells", "result": "G0/G1 phase arrest"}
    ]}
  ]
}
